System: SARS-CoV2
Test: SARS-CoV2 infection of human ACE2 mice, paquinimod nasal drop group versus control
Type: in vivo
Details: human ACE2 mice, paquinimod nasal drop group compared with control group, FIG. 17

With CCc1cccc2c1c(O)c(C(=O)N(CC)c1ccccc1)c(=O)n2C [paquinimod] the “resistance to SRAS-CoV2” value was “significantly more resistant”.

— US20220195432A9 (priority 2020, published 2022)
